US20250313533A1, “QUINOLINE CARBOXYLIC ACID ESTER COMPOUND AND PREPARATION METHOD AND USE THEREOF” (priority 2019, published 2025)

Experiments:
[1] = test system: pathogenic bacteria causing bacterial angular leaf spot in cucumbers; assay: In vitro bactericidal activity, bacterial angular leaf spot in cucumbers; assay type: cell-based, pseudomonas; conditions: read-out: inhibitory rate; for inhibition at 1 ppm: dosage 1 ppm; for inhibition at 5 ppm: dosage 5 ppm
[2] = test system: pathogenic bacteria causing bacterial wilt in tobacco; assay: whole plant or invertebrate; assay type: cell-based, ralstonia; conditions: read-out: inhibitory rate
[3] = test system: pathogenic bacteria causing black shank in potatoes; assay: In vitro bactericidal activity, black shank in potatoes; assay type: cell-based; conditions: read-out: inhibitory rate; for inhibition at 1 ppm: dosage 1 ppm; for inhibition at 5 ppm: dosage 5 ppm
[4] = test system: pathogenic bacteria causing stem rot in sweet potatoes; assay: In vitro bactericidal activity, stem rot in sweet potatoes; assay type: cell-based, dikia; conditions: read-out: inhibitory rate; for inhibition at 1 ppm: dosage 1 ppm; for inhibition at 5 ppm: dosage 5 ppm
[5] = test system: pathogenic bacteria causing bacterial blight in rice; assay: whole plant or invertebrate; assay type: cell-based, xanthomonas; conditions: read-out: inhibitory rate
[6] = test system: pathogenic bacteria causing fruit blotch in watermelons; assay: In vitro bactericidal activity, fruit blotch in watermelons; assay type: cell-based, acidovorax; conditions: read-out: inhibitory rate; for inhibition at 1 ppm: dosage 1 ppm; for inhibition at 5 ppm: dosage 5 ppm
[7] = test system: pathogenic bacteria causing black rot in Chinese cabbages; assay: In vitro bactericidal activity, black rot in Chinese cabbages; assay type: cell-based, xanthomonas; conditions: Xanthomonas, read-out: inhibitory rate; for inhibition at 1 ppm: dosage 1 ppm; for inhibition at 5 ppm: dosage 5 ppm
[8] = test system: pathogenic bacteria causing bacterial wilt in cassava; assay: organism not typed; assay type: cell-based; conditions: read-out: inhibitory rate
[9] = test system: pathogenic bacteria causing fire blight in pears; assay: In vitro bactericidal activity, fire blight in pears; assay type: cell-based, erwinia; conditions: Erwinia, read-out: inhibitory rate; for inhibition at 1 ppm: dosage 1 ppm; for inhibition at 5 ppm: dosage 5 ppm
black shank in potatoes = assay: Living crops in vivo protective activity, potatoes (root irrigation); conditions: Solanum tuberosum, read-out: efficacy against black shank in potatoes; for pest or weed control at 5 ppm: dosage 5 ppm; for pest or weed control at 10 ppm: dosage 10 ppm
Protocol: Root irrigation was carried out on the potatoes for tests according to the designed concentration of the agents. The dosage for each plant was 200 mL and was kept consistent (also for the control). The black shank bacteria were inoculated on the second day after the application. The results were investigated according to the disease condition.

[10] = test system: indoor potted cucumber seedlings; assay: Effect of improving growth and development of crops; assay type: in vivo; set-up: Rate of growth rate increase (%): concentration or dose not given beside the values; conditions: versus blank control; for Rate of chlorophyll content increase (%) / Rate of leaf area increase (%): 14 days after application; for Rate of growth rate increase (%): plant height 14 days after application; for Rate of leaf area increase (%): second leaf
How it was run: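 Pot-grown seedlings kept indoors; height plus second-leaf length (base to tip) and width (upper shoulder) taken pre-treatment and at day 14. Derived: growth-rate increase %, leaf area gain, SPAD chlorophyll gain.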

cucumber seedlings = assay: Safety for plant growth after application; assay type: in vivo; conditions: dosage 200 ppm
How it was run: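 Compound applied to indoor cucumber seedlings in pots. Growth then scored: height increase rate, leaf chlorophyll, leaf area.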

[11] = test system: bacterial wilt in tobacco; assay: whole plant or invertebrate; conditions: Nicotiana tabacum, read-out: efficacy against bacterial wilt in tobacco
[12] = test system: stem rot in sweet potatoes; assay: whole plant or invertebrate; conditions: read-out: efficacy against stem rot in sweet potatoes
bacterial blight in rice = assay: whole plant or invertebrate; conditions: Oryza sativa, read-out: efficacy against bacterial blight in rice
[13] = test system: fruit blotch in watermelons; assay: whole plant or invertebrate; conditions: read-out: efficacy against fruit blotch in watermelons
[14] = test system: soft rot in Chinese cabbages; assay: whole plant or invertebrate; conditions: 48 h, read-out: efficacy against soft rot in Chinese cabbages

| SMILES | inhibition at 1 ppm [1] [%] | inhibition at 5 ppm [1] [%] | inhibition at 1 ppm [2] [%] | inhibition at 5 ppm [2] [%] | inhibition at 1 ppm [3] [%] | inhibition at 5 ppm [3] [%] | inhibition at 1 ppm [4] [%] | inhibition at 5 ppm [4] [%] | inhibition at 1 ppm [5] [%] | inhibition at 5 ppm [5] [%] | inhibition at 1 ppm [6] [%] | inhibition at 5 ppm [6] [%] | inhibition at 1 ppm [7] [%] | inhibition at 5 ppm [7] [%] | inhibition at 1 ppm [8] [%] | inhibition at 5 ppm [8] [%] | inhibition at 1 ppm [9] [%] | inhibition at 5 ppm [9] [%] | pest or weed control at 5 ppm (black shank in potatoes) [%] | pest or weed control at 10 ppm (black shank in potatoes) [%] | other results |
| --- | --- | --- | --- | --- | --- | --- | --- | --- | --- | --- | --- | --- | --- | --- | --- | --- | --- | --- | --- | --- | --- |
| COCCCOC(=O)c1cn(C2CC2)c2cc(OC)c(F)cc2c1=O [Compound 323] | ≥ 90 | ≥ 90 | ≥ 90 | ≥ 90 | ≥ 90 | ≥ 90 | ≥ 90 | ≥ 90 | ≥ 90 | ≥ 90 | ≥ 90 | ≥ 90 | ≥ 90 | ≥ 90 | ≥ 90 | ≥ 90 | ≥ 90 | ≥ 90 | ≥ 90 | ≥ 90 | Rate of chlorophyll content increase (%) [10]: 19%; Rate of growth rate increase (%) [10]: 13%; Rate of leaf area increase (%) [10]: 13%; safety for plant growth (discoloration, necrosis, wilt, malformation) (cucumber seedlings): safe for plant growth; pest or weed control at 5 ppm [11]: ≥ 90%; pest or weed control at 10 ppm [11]: ≥ 90%; pest or weed control at 5 ppm [12]: ≥ 90%; pest or weed control at 10 ppm [12]: ≥ 90%; pest or weed control at 5 ppm (bacterial blight in rice): ≥ 90%; pest or weed control at 10 ppm (bacterial blight in rice): ≥ 90%; pest or weed control at 5 ppm [13]: ≥ 90%; pest or weed control at 10 ppm [13]: ≥ 90%; pest or weed control at 5 ppm [14]: ≥ 90%; pest or weed control at 10 ppm [14]: ≥ 90% |
| CCOCCOC(=O)c1cn(C2CC2)c2cc(OC)c(F)cc2c1=O [Compound 326] | ≥ 90 | ≥ 90 | ≥ 90 | ≥ 90 | ≥ 90 | ≥ 90 | ≥ 90 | ≥ 90 | ≥ 90 | ≥ 90 | ≥ 90 | ≥ 90 | ≥ 90 | ≥ 90 | ≥ 90 | ≥ 90 | ≥ 90 | ≥ 90 | ≥ 90 | ≥ 90 | Rate of chlorophyll content increase (%) [10]: 15%; Rate of growth rate increase (%) [10]: 13%; Rate of leaf area increase (%) [10]: 15%; safety for plant growth (discoloration, necrosis, wilt, malformation) (cucumber seedlings): safe for plant growth; pest or weed control at 5 ppm [11]: ≥ 90%; pest or weed control at 10 ppm [11]: ≥ 90%; pest or weed control at 5 ppm [12]: ≥ 90%; pest or weed control at 10 ppm [12]: ≥ 90%; pest or weed control at 5 ppm (bacterial blight in rice): ≥ 90%; pest or weed control at 10 ppm (bacterial blight in rice): ≥ 90%; pest or weed control at 5 ppm [13]: ≥ 90%; pest or weed control at 10 ppm [13]: ≥ 90%; pest or weed control at 5 ppm [14]: ≥ 90%; pest or weed control at 10 ppm [14]: ≥ 90% |
| O=C(OCCCO)c1cn(C2CC2)c2cc(OCC(F)(F)F)c(F)cc2c1=O [Compound 329] | ≥ 90 | ≥ 90 | ≥ 90 | ≥ 90 | ≥ 90 | ≥ 90 | ≥ 90 | ≥ 90 | ≥ 90 | ≥ 90 | ≥ 90 | ≥ 90 | ≥ 90 | ≥ 90 | ≥ 90 | ≥ 90 | ≥ 90 | ≥ 90 | ≥ 90 | ≥ 90 | Rate of chlorophyll content increase (%) [10]: 17%; Rate of growth rate increase (%) [10]: 13%; Rate of leaf area increase (%) [10]: 17%; safety for plant growth (discoloration, necrosis, wilt, malformation) (cucumber seedlings): safe for plant growth; pest or weed control at 5 ppm [11]: ≥ 90%; pest or weed control at 10 ppm [11]: ≥ 90%; pest or weed control at 5 ppm [12]: ≥ 90%; pest or weed control at 10 ppm [12]: ≥ 90%; pest or weed control at 5 ppm (bacterial blight in rice): ≥ 90%; pest or weed control at 10 ppm (bacterial blight in rice): ≥ 90%; pest or weed control at 5 ppm [13]: ≥ 90%; pest or weed control at 10 ppm [13]: ≥ 90%; pest or weed control at 5 ppm [14]: ≥ 90%; pest or weed control at 10 ppm [14]: ≥ 90% |
| CCOCCOC(=O)c1cn(C2CC2)c2cc(OCC(F)(F)F)c(F)cc2c1=O [Compound 335] | ≥ 90 | ≥ 90 | ≥ 90 | ≥ 90 | ≥ 90 | ≥ 90 | ≥ 90 | ≥ 90 | ≥ 90 | ≥ 90 | ≥ 90 | ≥ 90 | ≥ 90 | ≥ 90 | ≥ 90 | ≥ 90 | ≥ 90 | ≥ 90 | ≥ 90 | ≥ 90 | Rate of chlorophyll content increase (%) [10]: 16%; Rate of growth rate increase (%) [10]: 12%; Rate of leaf area increase (%) [10]: 16%; safety for plant growth (discoloration, necrosis, wilt, malformation) (cucumber seedlings): safe for plant growth; pest or weed control at 5 ppm [11]: ≥ 90%; pest or weed control at 10 ppm [11]: ≥ 90%; pest or weed control at 5 ppm [12]: ≥ 90%; pest or weed control at 10 ppm [12]: ≥ 90%; pest or weed control at 5 ppm (bacterial blight in rice): ≥ 90%; pest or weed control at 10 ppm (bacterial blight in rice): ≥ 90%; pest or weed control at 5 ppm [13]: ≥ 90%; pest or weed control at 10 ppm [13]: ≥ 90%; pest or weed control at 5 ppm [14]: ≥ 90%; pest or weed control at 10 ppm [14]: ≥ 90% |
| CCOc1ccc2c(=O)c(C(=O)OCCOC)cn(C3CC3)c2c1 [Compound 342] | ≥ 90 | ≥ 90 | ≥ 90 | ≥ 90 | ≥ 90 | ≥ 90 | ≥ 90 | ≥ 90 | ≥ 90 | ≥ 90 | ≥ 90 | ≥ 90 | ≥ 90 | ≥ 90 | ≥ 90 | ≥ 90 | ≥ 90 | ≥ 90 | ≥ 90 | ≥ 90 | Rate of chlorophyll content increase (%) [10]: 9%; Rate of growth rate increase (%) [10]: 9%; Rate of leaf area increase (%) [10]: 11%; safety for plant growth (discoloration, necrosis, wilt, malformation) (cucumber seedlings): safe for plant growth; pest or weed control at 5 ppm [11]: ≥ 90%; pest or weed control at 10 ppm [11]: ≥ 90%; pest or weed control at 5 ppm [12]: ≥ 90%; pest or weed control at 10 ppm [12]: ≥ 90%; pest or weed control at 5 ppm (bacterial blight in rice): ≥ 90%; pest or weed control at 10 ppm (bacterial blight in rice): ≥ 90%; pest or weed control at 5 ppm [13]: ≥ 90%; pest or weed control at 10 ppm [13]: ≥ 90%; pest or weed control at 5 ppm [14]: ≥ 90%; pest or weed control at 10 ppm [14]: ≥ 90% |
| COCCOC(=O)c1cn(C2CC2)c2cc(OCC(F)(F)F)ccc2c1=O [Compound 364] | ≥ 80 | ≥ 90 | ≥ 80 | ≥ 90 | ≥ 80 | ≥ 90 | ≥ 80 | ≥ 90 | ≥ 80 | ≥ 90 | ≥ 80 | ≥ 90 | ≥ 80 | ≥ 90 | ≥ 80 | ≥ 90 | ≥ 80 | ≥ 90 | ≥ 80 | ≥ 90 | Rate of chlorophyll content increase (%) [10]: 12%; Rate of growth rate increase (%) [10]: 7%; Rate of leaf area increase (%) [10]: 9%; safety for plant growth (discoloration, necrosis, wilt, malformation) (cucumber seedlings): safe for plant growth; pest or weed control at 5 ppm [11]: ≥ 90%; pest or weed control at 10 ppm [11]: ≥ 90%; pest or weed control at 5 ppm [12]: ≥ 90%; pest or weed control at 10 ppm [12]: ≥ 90%; pest or weed control at 5 ppm (bacterial blight in rice): ≥ 80%; pest or weed control at 10 ppm (bacterial blight in rice): ≥ 90%; pest or weed control at 5 ppm [13]: ≥ 90%; pest or weed control at 10 ppm [13]: ≥ 90%; pest or weed control at 5 ppm [14]: ≥ 80%; pest or weed control at 10 ppm [14]: ≥ 90% |
